Source: patent US9200003B2, “Crystalline forms of 1-(5′-(5-(3,5-dichloro-4-fluorophenyl)-5-(trifluoro-methyl)-4,5-dihydroisoxazol-3-yl)-3′H-spiro[azetidine-3,1′-isobenzofuran]-1-yl)-2-(methylsulfonyl) ethanone” (Zoetis Services LLC, priority 2012, dated 2015)
≈ marks a conversion by molar mass, not a printed value. Like-named read-outs stand apart in the source and are kept apart here.

Assay: Solubility of the solid-state forms in organic solvents
Type: physicochemical
Conditions: for solubility: organic solvent or mixture

CS(=O)(=O)CC(=O)N1CC2(C1)OCc1cc(C3=NOC(c4cc(Cl)c(F)c(Cl)c4)(C(F)(F)F)C3)ccc12 (racemic) [crystal racemate, (S/R)-1-(5′-(5-(3,5-dichloro-4-fluorophenyl)-5-(trifluoromethyl)-4,5-dihydroisoxazol-3-yl)-3′H-spiro[azetidine-3,1′-isobenzofuran]-1-yl)-2-(methylsulfonyl)ethanone]
solubility in acetone (acetone, room temperature (approximately 22° C.)): less than 10 mg/mL
solubility in methyl t-butyl ether (methyl t-butyl ether): < 1 mg/mL

CS(=O)(=O)CC(=O)N1CC2(C1)OCc1cc(C3=NO[C@@](c4cc(Cl)c(F)c(Cl)c4)(C(F)(F)F)C3)ccc12 [Form A, (S)-1-(5′-(5-(3,5-dichloro-4-fluorophenyl)-5-(trifluoromethyl)-4,5-dihydroisoxazol-3-yl)-3′H-spiro[azetidine-3,1′-isobenzofuran]-1-yl)-2-(methylsulfonyl)ethanone]
solubility (methyl t-butyl ether, read-out: solubility in methyl t-butyl ether): 11 mg/mL (≈ 18.9 mM)
solubility (acetone, room temperature (approximately 22° C.), read-out: solubility in acetone): > 300 mg/mL
